From ChEMBL document CHEMBL1201862, “PubChem BioAssay data set” (2004)
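A five-concentration, 48-hour dose response in 96-well plates underlies each endpoint, interpolated linearly between surrounding concentrations. Abbreviation: GI50, concentration required for 50% inhibition of growth.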 The source made the active and inactive calls. No stated cut-off is given here; in the data, active = GI50 up to about 1.1 µM and inactive = higher.

Experiments:
Experiment in all cases: NCI tumour cell line growth inhibition, 48 h
[1] = system: HOP-62
[2] = system: UACC-257
[3] = system: EKVX
[4] = system: MDA-MB-435
[5] = system: COLO 205
[6] = system: ACHN
[7] = system: OVCAR-8
[8] = system: CCRF-CEM
[9] = system: A498
[10] = system: Malme-3M
[11] = system: PC-3
[12] = system: RXF 393
[13] = system: SW-620
[14] = system: A549
[15] = system: HOP-92
[16] = system: SF-295
[17] = system: NCI-H522
[18] = system: HCT-15
[19] = system: OVCAR-3
[20] = system: CAKI-1

Compound	GI50 [1]	GI50 [2]	GI50 [3]	GI50 [4]	GI50 [5]	GI50 [6]	GI50 [7]	GI50 [8]	GI50 [9]	GI50 [10]	GI50 [11]	GI50 [12]	GI50 [13]	GI50 [14]	GI50 [15]	GI50 [16]	GI50 [17]	GI50 [18] [µM]	GI50 [19]	GI50 [20]
COc1c2ccsc2c(OC)c2ccsc12	40.2 µM (inactive)	> 100 µM (inactive)	> 100 µM (inactive)	> 100 µM (inactive)	> 100 µM (inactive)	> 100 µM (inactive)	> 100 µM (inactive)	> 100 µM (inactive)	> 100 µM (inactive)	> 100 µM (inactive)	> 100 µM (inactive)	35.2 µM (inactive)	> 100 µM (inactive)	> 100 µM (inactive)	39.4 µM (inactive)	61.8 µM (inactive)	> 100 µM (inactive)	> 100	> 100 µM (inactive)	0.478 µM (active)
CNc1ncnc2c1nnn2C	> 100 µM (inactive)	> 100 µM (inactive)	> 100 µM (inactive)	> 100 µM (inactive)	> 100 µM (inactive)	> 100 µM (inactive)	> 100 µM (inactive)	> 100 µM (inactive)	> 100 µM (inactive)	> 100 µM (inactive)	> 100 µM (inactive)	> 100 µM (inactive)	> 100 µM (inactive)	> 100 µM (inactive)	> 100 µM (inactive)	> 100 µM (inactive)	> 100 µM (inactive)	> 100	> 100 µM (inactive)	> 100 µM (inactive)
C[C@@H]1CCC2[C@@H](C)[C@H](O[C@H]3O[C@@H]4O[C@@]5(C)CCC6[C@H](C)CCC([C@H]3C)[C@]64OO5)O[C@@H]3O[C@@]4(C)CCC1[C@@]23OO4 (some centres not stated)	4.04 µM (inactive)	0.0912 µM (active)	0.142 µM (active)	0.06 µM (active)	0.0388 µM (active)	0.0953 µM (active)	0.0929 µM (active)	0.0462 µM (active)	4.15 µM (inactive)	0.635 µM (active)	0.0148 µM (active)	1.3 µM (inactive)	0.0418 µM (active)	0.0914 µM (active)	0.114 µM (active)	0.32 µM (active)	0.0577 µM (active)	0.022	0.408 µM (active)	0.27 µM (active)
CCC(CC)(CO)CNc1cc(Cl)nc(N)n1	> 100 µM (inactive)	> 100 µM (inactive)	79.3 µM (inactive)	> 100 µM (inactive)	> 100 µM (inactive)	> 100 µM (inactive)	> 100 µM (inactive)	> 100 µM (inactive)	> 100 µM (inactive)	> 100 µM (inactive)	> 100 µM (inactive)	67.1 µM (inactive)	> 100 µM (inactive)	> 100 µM (inactive)	11.3 µM (inactive)	> 100 µM (inactive)	> 100 µM (inactive)	> 100	> 100 µM (inactive)	> 100 µM (inactive)
COc1cc(CNC(=O)CCCCCCCCCCSC#N)ccc1O	–	21 µM (inactive)	21.4 µM (inactive)	5.52 µM (inactive)	30.3 µM (inactive)	> 10 µM (inactive)	18.5 µM (inactive)	8.13 µM (inactive)	15.1 µM (inactive)	32.7 µM (inactive)	6.82 µM (inactive)	10.2 µM (inactive)	16.2 µM (inactive)	19.1 µM (inactive)	17.1 µM (inactive)	19.1 µM (inactive)	12.3 µM (inactive)	6.93	13.1 µM (inactive)	18.2 µM (inactive)
CC(=O)N1NC(c2ccccc2)=CC(=O)/C1=C/C(=O)c1ccccc1	88.1 µM (inactive)	> 100 µM (inactive)	49.2 µM (inactive)	20.2 µM (inactive)	> 100 µM (inactive)	77.3 µM (inactive)	> 100 µM (inactive)	29.8 µM (inactive)	> 100 µM (inactive)	37.6 µM (inactive)	> 100 µM (inactive)	24.2 µM (inactive)	–	53.1 µM (inactive)	34.5 µM (inactive)	58.2 µM (inactive)	15.9 µM (inactive)	70.8	28.6 µM (inactive)	29.7 µM (inactive)
N=C(N)NS(=O)(=O)c1ccc(NNc2c3ccccc3nc3c(C(=O)Nc4ccc(S(N)(=O)=O)cc4)cccc23)cc1	53.7 µM (inactive)	> 100 µM (inactive)	80.2 µM (inactive)	72.8 µM (inactive)	31 µM (inactive)	52.7 µM (inactive)	36.1 µM (inactive)	8.24 µM (inactive)	> 100 µM (inactive)	20.6 µM (inactive)	36.1 µM (inactive)	40.6 µM (inactive)	22.1 µM (inactive)	> 100 µM (inactive)	15.1 µM (inactive)	48.2 µM (inactive)	14.7 µM (inactive)	> 100	22.9 µM (inactive)	> 100 µM (inactive)
COc1ccc(/C=C/C(=N/NC(=O)N/N=C(/C=C/c2ccc(OC)cc2)C(C)C)C(C)C)cc1	22 µM (inactive)	> 100 µM (inactive)	40 µM (inactive)	> 100 µM (inactive)	43.7 µM (inactive)	73.8 µM (inactive)	75 µM (inactive)	48.9 µM (inactive)	> 100 µM (inactive)	62.8 µM (inactive)	50.9 µM (inactive)	> 100 µM (inactive)	> 100 µM (inactive)	45.3 µM (inactive)	66.7 µM (inactive)	99.1 µM (inactive)	63.1 µM (inactive)	49.5	41.9 µM (inactive)	> 100 µM (inactive)
O=C(N/N=C/c1ccc([N+](=O)[O-])o1)c1ccc(C(=O)N/N=C/c2ccc([N+](=O)[O-])o2)cc1	47.8 µM (inactive)	–	> 100 µM (inactive)	16.2 µM (inactive)	28.1 µM (inactive)	10.2 µM (inactive)	28.4 µM (inactive)	14.8 µM (inactive)	8.87 µM (inactive)	21.2 µM (inactive)	64.7 µM (inactive)	36.6 µM (inactive)	22.4 µM (inactive)	45.5 µM (inactive)	53.8 µM (inactive)	40.4 µM (inactive)	48.3 µM (inactive)	29.8	26.1 µM (inactive)	35.4 µM (inactive)
COc1ccc(CN2C[C@H]3[C@@H](CC(=O)O[C@H]3C)CC2=O)cc1	> 100 µM (inactive)	> 100 µM (inactive)	> 100 µM (inactive)	> 100 µM (inactive)	> 100 µM (inactive)	> 100 µM (inactive)	> 100 µM (inactive)	> 100 µM (inactive)	> 100 µM (inactive)	> 100 µM (inactive)	> 100 µM (inactive)	> 100 µM (inactive)	> 100 µM (inactive)	> 100 µM (inactive)	> 100 µM (inactive)	> 100 µM (inactive)	> 100 µM (inactive)	> 100	> 100 µM (inactive)	> 100 µM (inactive)
N#Cc1c(O)nc2nn3c4ccc5ccccc5c4nnc3c2c1-c1ccc(Cl)cc1	3.16 µM (inactive)	3.58 µM (inactive)	3.93 µM (inactive)	3.3 µM (inactive)	2.24 µM (inactive)	2.49 µM (inactive)	2.27 µM (inactive)	1.56 µM (inactive)	1.58 µM (inactive)	1.93 µM (inactive)	2.43 µM (inactive)	2.01 µM (inactive)	2.03 µM (inactive)	4.57 µM (inactive)	2.3 µM (inactive)	1.84 µM (inactive)	1.5 µM (inactive)	1.89	1.69 µM (inactive)	2.29 µM (inactive)
O/N=N/c1cnccn1	218 µM (inactive)	> 1250 µM (inactive)	> 1250 µM (inactive)	> 1250 µM (inactive)	> 1220 µM (inactive)	480 µM (inactive)	1200 µM (inactive)	491 µM (inactive)	> 1250 µM (inactive)	> 1250 µM (inactive)	> 1250 µM (inactive)	> 1250 µM (inactive)	> 1250 µM (inactive)	> 1250 µM (inactive)	> 1080 µM (inactive)	> 1250 µM (inactive)	1030 µM (inactive)	> 1080	> 1250 µM (inactive)	975 µM (inactive)
CCN(CC)CCC(=O)O[C@H]1CC[C@H](CC(C)[C@H]2CC(=O)C(C)C=C(C)[C@H](OC(=O)CCN(CC)CC)C(OC)C(=O)[C@@H](C)CC(C)/C=C/C=C/C=C(C)C(OC)CC3CC[C@H](C)[C@](O)(O3)C(=O)C(=O)N3CCCCC3C(=O)O2)CC1OC (some centres not stated)	< 0.01 µM (active)	1.32 µM (inactive)	0.025 µM (active)	0.264 µM (active)	0.906 µM (active)	0.348 µM (active)	0.0362 µM (active)	< 0.0119 µM (active)	0.0161 µM (active)	< 0.0108 µM (active)	< 0.0195 µM (active)	0.011 µM (active)	0.266 µM (active)	0.251 µM (active)	0.0348 µM (active)	0.0218 µM (active)	0.0276 µM (active)	0.137	0.202 µM (active)	0.108 µM (active)
CC(=O)O[C@H](C[C@@H](C)[C@H]1C(=O)[C@H](O)[C@@]2(C)C3CC[C@H]4C(C)(C)[C@@H](OC5OCC(O)C(O)C5O)CC[C@@]45C[C@@]35CC[C@]12C)[C@@H]1OC1(C)C (some centres not stated)	12.1 µM (inactive)	18.6 µM (inactive)	18 µM (inactive)	17.7 µM (inactive)	22 µM (inactive)	14 µM (inactive)	20.2 µM (inactive)	1.93 µM (inactive)	15.9 µM (inactive)	17.2 µM (inactive)	15.2 µM (inactive)	16.8 µM (inactive)	32.4 µM (inactive)	27.9 µM (inactive)	16.9 µM (inactive)	16.3 µM (inactive)	17.4 µM (inactive)	24.6	2.29 µM (inactive)	16.8 µM (inactive)
